Assay results from ChEMBL document CHEMBL4610120, “New Broad-Spectrum Antibiotics Containing a Pyrrolobenzodiazepine Ring with Activity against Multidrug-Resistant Gram-Negative Bacteria” (J Med Chem, 2020).
Values after ≈ are worked out from the molar mass of the structure shown. Active and inactive are the calls of the source. The calls are words filed in the database; no cut-off is given here.

Key:
[1] = test system: Acinetobacter baumannii; experiment: Bactericidal activity against Acinetobacter baumannii ATCC 17978 assessed as reduction in viable bacterial count at 4 times MIC measured up to 24 hrs by Miles-Misra dilution method based time-kill assay; type: functional, organism-based
[2] = test system: Acinetobacter baumannii; experiment: Bactericidal activity against Acinetobacter baumannii NCTC 13424 assessed as reduction in viable bacterial count at 4 times MIC measured after 24 hrs by Miles-Misra dilution method based time-kill assay; type: functional, organism-based
[3] = test system: Klebsiella pneumoniae; experiment: Antimicrobial activity against Klebsiella pneumoniae M6 assessed as mutation frequency at 4 times MIC measured after 48 hrs; type: functional
[4] = test system: Acinetobacter baumannii; experiment: Bactericidal activity against Acinetobacter baumannii AYE assessed as reduction in viable bacterial count at 4 times MIC measured after 24 hrs by Miles-Misra dilution method based time-kill assay; type: functional, organism-based
[5] = test system: Acinetobacter baumannii; experiment: Ratio of MIC for multidrug-resistant Acinetobacter baumannii AYE to MIC for multidrug-resistant Acinetobacter baumannii AYE in presence of efflux pump inhibitor PAbetaN; type: functional
[6] = Ratio of MIC for Pseudomonas aeruginosa PAO1 to MIC for Pseudomonas aeruginosa harboring MexCD mutant; type: functional
[7] = test system: Acinetobacter baumannii; experiment: Antimicrobial activity against Acinetobacter baumannii ATCC 17978 assessed as mutation frequency at 4 times MIC measured after 48 hrs; type: functional
[8] = test system: Klebsiella pneumoniae; experiment: Bactericidal activity against multidrug-resistant Klebsiella pneumoniae NCTC 13368 assessed as viable bacterial count at 4 times MIC measured after 4 to 24 hrs by Miles-Misra dilution method based time-kill assay; type: functional, organism-based
[9] = test system: Escherichia coli; experiment: Antimicrobial activity against multidrug-resistant Escherichia coli NCTC 12923 assessed as mutation frequency at 4 times MIC measured after 48 hrs; type: functional
[10] = test system: Acinetobacter baumannii; experiment: Ratio of MIC for multidrug-resistant Acinetobacter baumannii AYE to MIC for multidrug-resistant Acinetobacter baumannii AYE in presence of efflux pump inhibitor CCCP; type: functional
[11] = test system: Klebsiella pneumoniae; experiment: Bactericidal activity against multidrug-resistant Klebsiella pneumoniae 16 assessed as viable bacterial count at 4 times MIC measured after 4 to 24 hrs by Miles-Misra dilution method based time-kill assay; type: functional, organism-based
[12] = test system: Klebsiella pneumoniae; experiment: Bactericidal activity against multidrug-resistant Klebsiella pneumoniae NCTC 13438 assessed as viable bacterial count at 4 times MIC measured after 4 to 24 hrs by Miles-Misra dilution method based time-kill assay; type: functional, organism-based
[13] = test system: Acinetobacter baumannii; experiment: Antimicrobial activity against Acinetobacter baumannii ATCC 17978 in presence of efflux pump inhibitor CCCP by microdilution broth method; type: functional
[14] = test system: Klebsiella pneumoniae; experiment: Antibacterial activity against multidrug-resistant Klebsiella pneumoniae NCTC 13368-7-R2 measured after 10 passages in presence of efflux pump inhibitor PAbetaN by microdilution broth method; type: functional
[15] = test system: Acinetobacter baumannii; experiment: Bactericidal activity against Acinetobacter baumannii NCTC 13424 assessed as reduction in viable bacterial count at 4 times MIC measured up to 24 hrs by Miles-Misra dilution method based time-kill assay; type: functional, organism-based
[16] = test system: Klebsiella pneumoniae; experiment: Antimicrobial activity against multidrug-resistant Klebsiella pneumoniae NCTC 13368 by microdilution broth method; type: functional
[17] = test system: Klebsiella pneumoniae; experiment: Antimicrobial activity against multidrug-resistant Klebsiella pneumoniae NCTC 13368 in presence of membrane permeabilizer PMBN by microdilution broth method; type: functional
[18] = test system: Acinetobacter baumannii; experiment: Antimicrobial activity against multidrug-resistant Acinetobacter baumannii NCTC 13302 by microdilution broth method; type: functional
[19] = test system: Klebsiella pneumoniae; experiment: Ratio of MIC for multidrug-resistant Klebsiella pneumoniae NCTC 13368 to MIC for multidrug-resistant Klebsiella pneumoniae NCTC 13368 in presence of membrane permeabilizer PMBN; type: functional
[20] = test system: Klebsiella pneumoniae; experiment: Antibacterial activity against multidrug-resistant Klebsiella pneumoniae NCTC 13368-7-R2 measured after 10 passages in presence of membrane permeabilizer PMBN by microdilution broth method; type: functional
[21] = test system: Klebsiella pneumoniae; experiment: Bactericidal activity against multidrug-resistant Klebsiella pneumoniae NCTC 13368 assessed as reduction in viable bacterial count at 4 times MIC measured after 24 hrs by Miles-Misra dilution method based time-kill assay; type: functional, organism-based
[22] = test system: Klebsiella pneumoniae; experiment: Antimicrobial activity against multidrug-resistant Klebsiella pneumoniae NCTC 13438 in presence of efflux pump inhibitor CCCP by microdilution broth method; type: functional
[23] = test system: Pseudomonas aeruginosa; experiment: Antimicrobial activity against multidrug-resistant Pseudomonas aeruginosa NCTC 13437 by microdilution broth method; type: functional
[24] = test system: Klebsiella pneumoniae; experiment: Bactericidal activity against multidrug-resistant Klebsiella pneumoniae NCTC 13438 assessed as reduction in viable bacterial count at 4 times MIC measured up to 24 hrs by Miles-Misra dilution method based time-kill assay; type: functional, organism-based
[25] = test system: Klebsiella pneumoniae; experiment: Ratio of MIC for multidrug-resistant Klebsiella pneumoniae NCTC 13368-7-R2 measured after 10 passages to MIC for multidrug-resistant Klebsiella pneumoniae NCTC 13368-7-R2 measured after 10 passages in presence of efflux pump inhibitor PAbetaN; type: functional
[26] = test system: Acinetobacter baumannii; experiment: Antimicrobial activity against multidrug-resistant Acinetobacter baumannii AYE in presence of efflux pump inhibitor CCCP by microdilution broth method; type: functional
[27] = test system: Klebsiella pneumoniae; experiment: Ratio of MIC for multidrug-resistant Klebsiella pneumoniae NCTC 13368-7-R2 measured after 10 passages to MIC for multidrug-resistant Klebsiella pneumoniae NCTC 13368-7-R2 measured after 10 passages in presence of membrane permeabilizer PMBN; type: functional
[28] = test system: Acinetobacter baumannii; experiment: Antimicrobial activity against multidrug-resistant Acinetobacter baumannii UKA7 by microdilution broth method; type: functional
[29] = test system: Pseudomonas aeruginosa; experiment: Antimicrobial activity against multidrug-resistant Pseudomonas aeruginosa NCTC 13437 in presence of membrane permeabilizer PMBN by microdilution broth method; type: functional
[30] = test system: Klebsiella pneumoniae; experiment: Antibacterial activity against multidrug-resistant Klebsiella pneumoniae NCTC 13368-7-R2 measured after 10 passages by microdilution broth method; type: functional
[31] = test system: Acinetobacter baumannii; experiment: Antimicrobial activity against multidrug-resistant Acinetobacter baumannii W1 by microdilution broth method; type: functional
[32] = test system: Klebsiella pneumoniae; experiment: Antibacterial activity against multidrug-resistant Klebsiella pneumoniae NCTC 13368-7-R1 measured after 10 passages in presence of membrane permeabilizer PMBN by microdilution broth method; type: functional
[33] = test system: Acinetobacter baumannii; experiment: Bactericidal activity against Acinetobacter baumannii AYE assessed as reduction in viable bacterial count at 4 times MIC measured up to 24 hrs by Miles-Misra dilution method based time-kill assay; type: functional, organism-based
[34] = test system: Acinetobacter baumannii; experiment: Antimicrobial activity against multidrug-resistant Acinetobacter baumannii UKA2 by microdilution broth method; type: functional
[35] = test system: Klebsiella pneumoniae; experiment: Ratio of MIC for multidrug-resistant Klebsiella pneumoniae NCTC 13368-7-R1 measured after 10 passages to MIC for multidrug-resistant Klebsiella pneumoniae NCTC 13368-7-R1 measured after 10 passages in presence of membrane permeabilizer PMBN; type: functional
[36] = Solubility of the compound at 32 mg/L; type: physicochemical
[37] = test system: Klebsiella pneumoniae; experiment: Bactericidal activity against multidrug-resistant Klebsiella pneumoniae NCTC 13368 assessed as reduction in viable bacterial count at 4 times MIC measured after 6 hrs by Miles-Misra dilution method based time-kill assay; type: functional, organism-based
[38] = test system: Acinetobacter baumannii; experiment: Antimicrobial activity against multidrug-resistant Acinetobacter baumannii NCTC 13424 by microdilution broth method; type: functional
[39] = test system: Klebsiella pneumoniae; experiment: Antimicrobial activity against multidrug-resistant Klebsiella pneumoniae 16 in presence of membrane permeabilizer PMBN by microdilution broth method; type: functional
[40] = test system: Klebsiella pneumoniae; experiment: Antibacterial activity against multidrug-resistant Klebsiella pneumoniae NCTC 13368-7-R1 measured after 10 passages in presence of efflux pump inhibitor CCCP by microdilution broth method; type: functional

For COc1cc2c(cc1OCCCC(=O)Nc1cc(C(=O)Nc3ccc4sc(C(=O)N(C)C)cc4c3)n(C)c1)N=C[C@@H]1CCCN1C2=O, which Activity [1] is on record?
The Activity was “Active”.

What about the Activity [2] of the same compound?
Its Activity is “inactive”.

And the Activity [3]?
The Activity was 1 ×10⁻⁶ No_unit.

And the Activity [4]?
Its Activity is “inactive”.

And the Ratio [5]?
The Ratio was 4.

What about the Ratio [6] of the same compound?
Its Ratio is > 4.

What about the Activity [7] of the same compound?
Its Activity is <1.5 ×10⁻⁸ No_unit.

And the Activity [8]?
The Activity was “Below limit of detection”.

And the Activity [9]?
The Activity was <4.3 ×10⁻⁸ No_unit.

What about the Ratio [10] of the same compound?
Its Ratio is 4.

And the Activity [11]?
Its Activity is “Below limit of detection”.

What about the Activity [12] of the same compound?
The Activity was “Below limit of detection”.

What about the MIC [13] of the same compound?
The MIC was 0.25 µg/mL.

What does the source list for COc1cc2c(cc1OCCCC(=O)Nc1cc(C(=O)Nc3ccc4oc(C(=O)N5CCSCC5)cc4c3)n(C)c1)N=C[C@@H]1CCCN1C2=O?
MIC [14]: 128 µg/mL; Activity [15]: Active; MIC [16]: 32 µg/mL (≈ 45.8 µM); MIC [17]: 8 µg/mL; MIC [18]: 4 µg/mL (≈ 5.72 µM); Ratio [19]: 4; MIC [20]: 64 µg/mL; Activity [21]: inactive; MIC [22]: 4 µg/mL; MIC [23]: > 32 µg/mL; Activity [24]: Active; Ratio [25]: 4; MIC [26]: 4 µg/mL; Ratio [27]: 4; MIC [28]: 4 µg/mL (≈ 5.72 µM); MIC [29]: 2 to 32 µg/mL; MIC [30]: > 128 µg/mL; MIC [31]: 4 µg/mL (≈ 5.72 µM); MIC [32]: 8 µg/mL; Activity [33]: Active; MIC [34]: 4 µg/mL (≈ 5.72 µM); Ratio [35]: 4; solubility [36]: Insoluble; Activity [37]: Active; MIC [38]: 1 to 2 µg/mL (≈ 1.43 to 2.86 µM); MIC [39]: 0.5 µg/mL; MIC [40]: 128 µg/mL
